Reference: ChEMBL document CHEMBL1201862, “PubChem BioAssay data set” (2004)
Blank lines part the entries; values can stand above or below the molecule they belong to. Calls of active or inactive are those of the source.

What was measured:
[1] = target: T1, Neuropeptide Y receptor type 1 (Homo sapiens, UniProt P25929); type: functional;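 for IC50: HEK293 cells with a CNG channel challenged with NPY then isoproterenol; potency as antagonist that reverses NPY suppression of cAMP signal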
T1 sequence (P25929 whole entry): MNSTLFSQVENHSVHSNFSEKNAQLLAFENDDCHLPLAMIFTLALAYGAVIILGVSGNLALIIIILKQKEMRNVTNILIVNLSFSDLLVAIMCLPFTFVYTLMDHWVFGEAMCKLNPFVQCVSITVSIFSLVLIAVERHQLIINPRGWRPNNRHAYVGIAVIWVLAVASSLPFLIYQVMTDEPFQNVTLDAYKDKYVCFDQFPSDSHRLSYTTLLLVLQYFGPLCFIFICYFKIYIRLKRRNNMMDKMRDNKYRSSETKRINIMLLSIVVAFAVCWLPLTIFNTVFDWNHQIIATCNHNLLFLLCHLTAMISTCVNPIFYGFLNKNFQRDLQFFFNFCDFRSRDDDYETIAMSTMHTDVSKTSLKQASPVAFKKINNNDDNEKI

[2] = target: T2, Neuropeptide Y receptor type 2 (Homo sapiens, UniProt P49146); type: functional, cell-based;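 for IC50: HEK293 cells expressing the receptor and a CNG channel; stimulus was NPY near EC95 followed by isoproterenol to raise cAMP; antagonist potency measured as restoring cAMP signal that NPY suppresses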
T2 sequence (P49146 whole entry): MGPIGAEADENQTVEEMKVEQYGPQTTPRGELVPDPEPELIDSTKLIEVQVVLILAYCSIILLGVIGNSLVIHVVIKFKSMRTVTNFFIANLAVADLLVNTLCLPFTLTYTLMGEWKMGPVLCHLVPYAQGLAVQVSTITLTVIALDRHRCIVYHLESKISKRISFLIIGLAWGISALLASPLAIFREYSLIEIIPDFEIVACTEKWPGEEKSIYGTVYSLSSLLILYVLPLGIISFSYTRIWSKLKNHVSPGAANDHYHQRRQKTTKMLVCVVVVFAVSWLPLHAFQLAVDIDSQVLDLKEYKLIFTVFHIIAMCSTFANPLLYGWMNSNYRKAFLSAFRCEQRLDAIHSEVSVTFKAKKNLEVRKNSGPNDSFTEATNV

[3] = tested on: HEK293; assay: Fluorescence-based counterscreen for potentiators or agonists of NPY-Y2: cell-based high-throughput dose response assay to identify inhibitors of cyclic nucleotide gated ion channel (CNGC) activity. In this assay, the parental HEK293 cell line transfected with a cyclic-nucleotide gated ion channel (CNGC)-based cAMP sensor is used to measure inhibition of isoproterenol-induced CNGC activity by test compound.; type: functional; conditions: Homo sapiens;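 note: stimulus is 1 µM isoproterenol at EC100 plus PDE inhibitor Ro 20-1724 at 25 µM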
[4] = viability of uninfected HEp-2 cells – cell-based, HTS, cytotoxicity control for RSV inhibitor project, dose response (AID 2410); type: functional; conditions: human respiratory syncytial virus
[5] = target: T1, Neuropeptide Y receptor type 1; assay: Fluorescence-based counterscreen for agonists of NPY-Y2: cell-based high-throughput dose response assay for agonists of NPY-Y1.; type: functional
[6] = target: T2, Neuropeptide Y receptor type 2; assay: Fluorescence-based cell-based high-throughput dose response assay for agonists of NPY-Y2. [Related pubchem assays: 1703 (Screening assay (CNGC inhibitors).), 1359 (Screening assay (NPY-Y2 potentiators or agonists).), 1304 (Screening assay (NPY-Y1 potentiators or agonists).), 1710 (Screening assay (NPY-Y2 agonists).), 1791 (Summary AID.)]; type: functional
[7] = target: Peroxisome proliferator-activated receptor gamma/Nuclear receptor coactivator 1 (Homo sapiens, UniProt P37231); type: functional;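 note: agonist potency as compounds enhance coactivator SRC-1 recruitment to PPARgamma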
[8] = target: Peroxisome proliferator-activated receptor gamma/Nuclear receptor coactivator 2 (Homo sapiens, UniProt P37231); type: functional;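 note: agonist potency for raising coactivator recruitment to the receptor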
[9] = target: Peroxisome proliferator-activated receptor gamma/Nuclear receptor coactivator 3 (Homo sapiens, UniProt P37231); type: functional;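 note: agonist potency for raising coactivator recruitment to the receptor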
[10] = cells; type: functional, cell-based
[11] = cells; type: functional, cell-based; remark: listed apart in the source
[12] = target: Protein Tat (Human immunodeficiency virus type 1 group M subtype B (isolate HXB2)(HIV-1), UniProt P04608); type: functional;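 note: tat binding to TAR RNA read out by fluorescence polarization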
[13] = target: T3, Bcl-2-like protein 10 (Homo sapiens, UniProt Q9HD36); assay: Concentration-response of Bcl-B inhibitors by biochemical FP with TR3 (AID 1243); type: functional
T3 sequence (Q9HD36 whole entry): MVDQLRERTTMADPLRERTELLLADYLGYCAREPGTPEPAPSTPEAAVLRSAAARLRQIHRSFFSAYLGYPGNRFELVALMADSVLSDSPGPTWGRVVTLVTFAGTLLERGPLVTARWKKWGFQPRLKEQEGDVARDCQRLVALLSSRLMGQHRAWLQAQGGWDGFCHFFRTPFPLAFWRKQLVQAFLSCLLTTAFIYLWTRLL

[14] = viability loss in THP-1 monocytes – THP-1 cells, cytotoxicity control for Vif-APOBEC3G degradation inhibitor project, dose response (AID 1117359); type: functional; conditions: THP-1
[15] = tested on: Vero; assay: viability of Vero cells under compound – cytotoxicity control for flavivirus capping enzyme inhibitors (AID 588742); type: functional; conditions: Chlorocebus sabaeus
[16] = HIV-1 Vif–A3G interaction blockers – biochemical, TR-FRET, GST-Vif 1-94, biotin-A3G peptide, dose response retest, primary screen (AID 1117319); type: functional;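 note: TR-FRET signal of purified GST-Vif binding a biotinylated A3G peptide; inhibitors lower the FRET signal by blocking Vif and A3G binding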

Chain of Protein Tat (P04608 whole entry): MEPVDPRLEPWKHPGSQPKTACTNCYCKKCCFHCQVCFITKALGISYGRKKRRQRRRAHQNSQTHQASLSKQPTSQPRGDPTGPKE
Chain of Peroxisome proliferator-activated receptor gamma/Nuclear receptor coactivator 3 (P37231 whole entry): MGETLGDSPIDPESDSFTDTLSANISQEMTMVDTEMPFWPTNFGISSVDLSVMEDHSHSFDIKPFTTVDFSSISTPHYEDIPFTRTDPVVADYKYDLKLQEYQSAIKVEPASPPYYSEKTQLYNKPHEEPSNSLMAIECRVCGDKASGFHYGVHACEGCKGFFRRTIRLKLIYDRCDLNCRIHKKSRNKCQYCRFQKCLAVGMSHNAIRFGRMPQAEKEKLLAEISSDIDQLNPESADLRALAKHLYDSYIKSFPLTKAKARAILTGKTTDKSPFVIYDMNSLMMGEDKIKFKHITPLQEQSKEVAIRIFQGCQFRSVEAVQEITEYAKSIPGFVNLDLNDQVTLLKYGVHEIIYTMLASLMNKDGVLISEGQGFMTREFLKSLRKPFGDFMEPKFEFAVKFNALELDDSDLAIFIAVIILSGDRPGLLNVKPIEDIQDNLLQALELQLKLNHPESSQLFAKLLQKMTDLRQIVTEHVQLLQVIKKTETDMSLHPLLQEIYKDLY
Chain of Peroxisome proliferator-activated receptor gamma/Nuclear receptor coactivator 3 (Q9Y6Q9 whole entry, further chain): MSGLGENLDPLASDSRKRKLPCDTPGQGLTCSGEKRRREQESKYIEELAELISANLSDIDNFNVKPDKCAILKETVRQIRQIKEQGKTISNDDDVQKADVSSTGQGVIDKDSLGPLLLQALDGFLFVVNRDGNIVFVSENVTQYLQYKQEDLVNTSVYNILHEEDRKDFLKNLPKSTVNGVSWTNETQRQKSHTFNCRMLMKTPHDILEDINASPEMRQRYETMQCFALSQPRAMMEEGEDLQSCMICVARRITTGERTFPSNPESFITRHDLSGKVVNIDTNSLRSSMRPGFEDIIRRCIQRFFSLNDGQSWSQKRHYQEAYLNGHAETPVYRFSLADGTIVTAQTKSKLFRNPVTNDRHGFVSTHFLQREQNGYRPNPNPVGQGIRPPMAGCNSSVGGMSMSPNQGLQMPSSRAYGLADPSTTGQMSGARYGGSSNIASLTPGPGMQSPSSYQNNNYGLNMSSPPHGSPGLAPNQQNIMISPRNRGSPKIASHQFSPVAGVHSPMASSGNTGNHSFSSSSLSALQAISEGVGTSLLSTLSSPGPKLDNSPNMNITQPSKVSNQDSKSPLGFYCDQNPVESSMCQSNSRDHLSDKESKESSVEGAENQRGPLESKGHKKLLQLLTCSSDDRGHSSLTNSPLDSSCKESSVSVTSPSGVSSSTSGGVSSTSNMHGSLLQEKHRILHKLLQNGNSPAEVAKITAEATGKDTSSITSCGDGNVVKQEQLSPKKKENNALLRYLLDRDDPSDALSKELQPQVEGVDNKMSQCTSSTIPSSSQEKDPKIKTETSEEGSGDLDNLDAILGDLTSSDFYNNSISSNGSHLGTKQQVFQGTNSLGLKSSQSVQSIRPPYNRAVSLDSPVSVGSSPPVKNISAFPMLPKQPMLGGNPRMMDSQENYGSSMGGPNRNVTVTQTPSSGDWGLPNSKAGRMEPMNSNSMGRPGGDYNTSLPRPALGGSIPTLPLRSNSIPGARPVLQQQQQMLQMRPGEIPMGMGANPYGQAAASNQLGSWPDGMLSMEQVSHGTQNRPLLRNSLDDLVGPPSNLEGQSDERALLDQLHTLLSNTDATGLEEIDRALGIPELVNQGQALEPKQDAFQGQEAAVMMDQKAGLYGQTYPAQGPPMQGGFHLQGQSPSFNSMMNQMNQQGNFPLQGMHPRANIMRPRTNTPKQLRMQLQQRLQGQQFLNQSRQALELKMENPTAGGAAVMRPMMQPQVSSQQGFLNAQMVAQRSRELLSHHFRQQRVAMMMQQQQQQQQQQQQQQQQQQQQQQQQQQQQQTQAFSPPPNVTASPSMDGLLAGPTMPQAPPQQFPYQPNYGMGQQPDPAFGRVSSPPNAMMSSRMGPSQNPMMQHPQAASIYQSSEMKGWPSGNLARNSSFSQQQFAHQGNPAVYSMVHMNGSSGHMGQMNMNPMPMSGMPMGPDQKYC
Chain of Peroxisome proliferator-activated receptor gamma/Nuclear receptor coactivator 2 (P37231 whole entry): as the sequence (P37231 whole entry) above
Chain of Peroxisome proliferator-activated receptor gamma/Nuclear receptor coactivator 2 (Q15596 whole entry, further chain): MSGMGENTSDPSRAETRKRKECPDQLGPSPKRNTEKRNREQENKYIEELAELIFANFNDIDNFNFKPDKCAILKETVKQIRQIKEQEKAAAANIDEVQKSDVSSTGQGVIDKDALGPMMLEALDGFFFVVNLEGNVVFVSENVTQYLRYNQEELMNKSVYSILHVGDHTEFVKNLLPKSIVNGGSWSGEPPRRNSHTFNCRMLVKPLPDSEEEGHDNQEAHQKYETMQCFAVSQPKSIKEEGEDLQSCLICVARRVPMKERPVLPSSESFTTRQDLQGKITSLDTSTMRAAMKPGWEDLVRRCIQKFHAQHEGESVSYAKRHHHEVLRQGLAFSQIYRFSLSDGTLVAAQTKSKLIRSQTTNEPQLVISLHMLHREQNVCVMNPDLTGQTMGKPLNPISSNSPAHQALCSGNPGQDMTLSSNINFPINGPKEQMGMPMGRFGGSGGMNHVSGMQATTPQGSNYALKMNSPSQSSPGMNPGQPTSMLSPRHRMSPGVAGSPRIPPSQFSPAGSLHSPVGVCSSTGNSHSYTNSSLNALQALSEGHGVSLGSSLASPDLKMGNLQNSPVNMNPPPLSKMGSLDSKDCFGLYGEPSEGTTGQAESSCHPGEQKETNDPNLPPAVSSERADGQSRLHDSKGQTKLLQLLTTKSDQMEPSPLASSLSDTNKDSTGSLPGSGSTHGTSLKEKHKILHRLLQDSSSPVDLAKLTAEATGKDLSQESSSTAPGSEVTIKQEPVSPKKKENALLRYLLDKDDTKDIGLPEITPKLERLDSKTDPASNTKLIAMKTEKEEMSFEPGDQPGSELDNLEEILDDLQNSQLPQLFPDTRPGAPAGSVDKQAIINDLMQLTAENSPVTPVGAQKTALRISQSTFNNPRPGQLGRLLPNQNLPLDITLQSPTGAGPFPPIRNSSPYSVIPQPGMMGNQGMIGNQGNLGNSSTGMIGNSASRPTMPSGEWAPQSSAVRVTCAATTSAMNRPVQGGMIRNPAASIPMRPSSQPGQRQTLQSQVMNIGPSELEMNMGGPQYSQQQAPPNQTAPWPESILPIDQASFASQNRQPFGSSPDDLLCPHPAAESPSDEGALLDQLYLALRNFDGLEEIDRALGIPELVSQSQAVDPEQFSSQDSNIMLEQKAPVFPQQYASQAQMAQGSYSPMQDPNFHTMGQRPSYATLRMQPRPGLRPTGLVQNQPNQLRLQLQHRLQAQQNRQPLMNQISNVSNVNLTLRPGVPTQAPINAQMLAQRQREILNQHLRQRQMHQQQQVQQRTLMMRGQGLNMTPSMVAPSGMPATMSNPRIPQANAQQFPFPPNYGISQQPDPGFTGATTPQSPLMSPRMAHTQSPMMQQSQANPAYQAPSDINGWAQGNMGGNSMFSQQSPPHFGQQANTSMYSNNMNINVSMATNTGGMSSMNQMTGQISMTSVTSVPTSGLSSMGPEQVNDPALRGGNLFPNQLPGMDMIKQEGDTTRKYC

- IC50 [1]: 5.31 µM (active)
- IC50 [2]: 4.32 µM (active)
Compound: COC(=O)c1cc(Cl)c(NC(=O)c2ccc(C(C)(C)C)cc2)cc1OC

Compound: CC(=O)Nc1ccc(-c2cc3ccccc3o2)cc1
- EC50 [3]: 27.4 µM (not active)
- CC50 [4]: 28.2 µM (active)
- EC50 [5]: 28.9 µM (not active)
- EC50 [6]: > 35.4 µM (not active)

- EC50 [7]: > 79.4 µM (not active)
- EC50 [8]: > 79.4 µM (not active)
- EC50 [9]: > 79.4 µM (not active)
Compound: CC(C)(C)c1ccc(OCc2ccc(C(=O)N3CCOCC3)o2)cc1

Compound: Oc1cccc(/C=N/c2c(-c3ccco3)nc3ccccn23)c1
- EC50 [10]: 66.5 µM (active)
- EC50 [11]: > 350 µM (not active)
- IC50 [12]: 53.3 µM (inconclusive)
- EC50 [13]: 9.07 µM (active)
- CC50 [14]: > 40 µM (active)
- CC50 [15]: > 40 µM (active)
- IC50 [16]: > 66.8 µM (active)
